Reference: patent US20220056014A1, “PHENYLPYRROLIDINE COMPOUND AND USE THEREOF” (WUHAN HUMANWELL INNOVATIVE DRUG RESEARCH AND DEVELOPMENT …, priority 2018, published 2022)
Where two headings read alike, the source gives them in different places.

Legend:
Rat pharmacokinetic test = assay type: in vivo, SD rats; conditions: male, Sprague-Dawley (SD), plasma, oral gavage 10 mg/kg
Procedure: (§1) In the rat pharmacokinetic test, 3 male SD rats (180-240 g) were fasted overnight, and orally administered with 10 mg/kg of compound to be tested. Blood was collected before the administration, and 15 min, 30 min, 1 h, 2 h, 4 h, 8 h, and 24 h hours after the administration. The blood sample was centrifuged at 8000 rpm for 6 min at 4° C., and the plasma was collected and stored at −20° C. The plasma collected at each time point was added and mixed with 3-5 times the amount of acetonitrile solution containing an internal standard, vortexed for 1 min, centrifuged at 13,000 rpm for 10 min at 4° C. The supernatant was taken and mixed with 3 times the amount of water, and an appropriate amount of the mixture was taken for LC-MS/MS analysis. The main pharmacokinetic parameters were analyzed with WinNonlin 7.0 software non-compartmental model.

[1] = Pharmacokinetic test in canine; assay type: in vivo, beagle dogs; conditions: male, beagle, dog, plasma, oral gavage 5 mg/kg
Procedure: as §1
(§2) In the mouse pharmacokinetic test, 9 male CD-1 mice (20-25 g) were fasted overnight, and orally administered with 10 mg/kg of the compound to be tested. Bloods of 3 mice were collected at each time point, and bloods of 9 mice were alternately collected in total. In the pharmacokinetic test in canine, 3 male beagle dogs (8-10 kg) were fasted overnight, and orally administered with 5 mg/kg of the compound to be test. In the pharmacokinetic test of cynomolgus monkeys, 3 male cynomolgus monkeys (4 to 6.5 kg) were fasted overnight, and orally administered 20 mg/kg of the compound to be test. The remaining processes are the same as those of the rat pharmacokinetic test.

[2] = tested on: LPS-stimulated TNF-α release; experiment: LPS-stimulated TNF-α release in mice; assay type: in vivo, Balb/c mice; conditions: Mus musculus, oral 50 mg/kg (positive control 100 mg/kg), 1 mg/kg LPS i.p.
Summary of the method: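 Balb/c mice (6 per group) dosed orally with 50 mg/kg compound, then 1 mg/kg LPS i.p. 30 min later; serum taken 90 or 120 min post-LPS. Serum TNF-α measured by ELISA; inhibition % calculated relative to model and blank (PBS) groups.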

[3] = tested on: Mouse CIA arthritis model; experiment: Mouse CIA arthritis model test; assay type: in vivo, DBA/1 mice; conditions: 30 mg/kg oral, twice a day for 21 days; for inhibition rate based on clinical score AUC: AUC day 21 to day 42; for Clinical score (endpoint): day 42, highest score 16
Procedure: (1) Preparation of Type II Collagen/Complete Freund's Adjuvant
Preparation of acetic acid: 2N acetic acid was diluted to 100 mM, filtered with 0.22 μm filter membrane, and stored at 4° C.
Preparation of bovine type II collagen solution: bovine type II collagen (CII) was dissolved in 100 mM acetic acid solution and stored at 4° C. overnight. A final concentration of collagen was 8 mg/mL.
Preparation of emulsion: the CII solution stored overnight was mixed with an equal volume of complete Freund's adjuvant, and homogenized on ice by a high-speed homogenizer at 30,000 rpm for approximately 60 min, until the solution formed a stable emulsion.
After DBA/1 mice were anesthetized with isoflurane, 50 μl of prepared collagen emulsion (containing 200 micrograms of CII) was injected subcutaneously in the tail (2-3 cm from the base of the tail) for immunization. The day of the primary immunization was recorded as day 0, and the following days were recorded sequentially. On day 21, the same volume of collagen emulsion was injected into the tail in the same way. Mice in the normal group were not immunized.
On day 21, the mice that had been induced to have arthritis were randomly grouped according to their body weights, such that the average body weight of each group was consistent, and they were randomly divided into 6 treatment groups for administration, with 10 mice in each group.
G1 group included normal mice without being treated; G2 group was given a blank vehicle; G3 to G7 groups were administrated with the compound at a dose of 30 mg/kg, twice a day for 21 days. The volume of oral administration was 10 mL/kg.
After the enhanced immunization, the disease incidence of the mice was observed every day. When the mice began to develop symptoms (clinical symptoms of arthritis emerged), the symptoms were graded as 0 to 4 according to the different degrees of pathological changes (redness, joint deformation), where the highest score for each limb was 4, and the highest score for each animal was 16. The mice were graded at least three times a week.
The area under curve (AUC) of clinical scores of each group from day 21 to day 42 was calculated, and the inhibition rate % of the clinical score AUC of the administration group was calculated:
Inhibition rate %=1−(administration group AUC/blank vehicle group AUC)*100%
The experimental data are expressed as Mean±standard error (Mean±SEM), and the clinical scores were analyzed with One-way ANOVA, where p<0.05 was considered to be a significant difference.

[4] = Mouse pharmacokinetic test; assay type: in vivo, CD-1 mice; conditions: male, CD-1, plasma, oral gavage 10 mg/kg
Procedure: as §1, §2

[5] = 1.5 h, blood 90 min after LPS, read-out: Inhibition rate (%) of LPS-stimulated TNF-α release, 90 min
[6] = 2 h, blood 120 min after LPS, read-out: Inhibition rate (%) of LPS-stimulated TNF-α release, 120 min

AUC(0-t) (Rat pharmacokinetic test) [ng·h/mL] | Cmax (Rat pharmacokinetic test) [ng/mL] | Tmax (Rat pharmacokinetic test) [min] | AUC(0-t) [1] [ng·h/mL] | Cmax [1] [ng/mL] | Tmax [1] [min] | AUC(0-t) [4] [ng·h/mL] | Cmax [4] [ng/mL] | Tmax [4] [min] | SMILES | inhibition in vivo at 50 mg/kg [2, 5] [%] | inhibition in vivo at 50 mg/kg [2, 6] [%] | inhibition rate based on clinical score AUC [3] [%] | Clinical score (endpoint) [3]
2480 | 823 | 25.2 | 1740 | 484 | 49.8 | 896 | 378 | 30 | COc1ccc([C@@H]2CN(C(=O)[C@@H](O)CO)C[C@@]2(C)[C@@H](C)O)cc1OC1CN(c2ncc(C)cc2F)C1 [Compound 004, (S)-1-((3S,4S)-4-(3-((1-(3-fluoro-5-methylpyridin-2-yl)azetidin-3-yl)oxy)-4-methoxyphenyl)-3-((R)-1-hydroxyethyl)-3-methylpyrrolidin-1-yl)-2,3-dihydroxypropan-1-one] | 39.6 | 58.6 | 67.5 | 3.3
1530 | 735 | 30 | 1690 | 689 | 15 | 332 | 125 | 30 | COc1ccc([C@@H]2CN(C(=O)[C@@H](O)CO)C[C@@]2(C)[C@@H](C)O)cc1OC1CN(c2ccc(C)c(C)n2)C1 [Compound 007, (S)-1-((3S,4S)-4-(3-((1-(5,6-dimethylpyridin-2-yl)azetidin-3-yl)oxy)-4-methoxyphenyl)-3-((R)-1-hydroxyethyl)-3-methylpyrrolidin-1-yl)-2,3-dihydroxypropan-1-one] | 52.1 | 66.4 | 77.2 | 3.1
294 | 126 | 25.2 | 1420 | 356 | 49.8 | 1050 | 316 | 30 | COc1ccc([C@@H]2CN(C(=O)[C@@H](O)CO)C[C@@]2(C)[C@@H](C)O)cc1OC1CN(c2ccc(Cl)c(C)n2)C1 [Compound 011, (S)-1-((3S,4S)-4-(3-((1-(5-chloro-6-methylpyridin-2-yl)azetidin-3-yl)oxy)-4-methoxyphenyl)-3-((R)-1-hydroxyethyl)-3-methylpyrrolidin-1-yl)-2,3-dihydroxypropan-1-one] | 47.4 | 63.3 | 49.3 | 4.8
190 | 68.2 | 30 | 423 | 159 | 55.2 | 237 | 142 | 15 | COc1ccc([C@@H]2CN(C(=O)[C@@H](O)CO)C[C@@]2(C)[C@@H](C)O)cc1OC1CN(c2ccc(C)cn2)C1 [Positive control compound, reference compound] | 44.4 | 49 | 42.3 | 4.4
